Laboratory results: patent US20240109918A1, “HETEROCYCLIC COMPOUNDS AND USES THEREOF” (Kumquat Biosciences Inc., priority 2022, published 2024)

How the values were obtained:
KRASwt = target: T1, KRASwt (Homo sapiens, UniProt P01116); experiment: Bio-Biochem-PPI-HTRF Ras-SOS1 interaction assay (KRAS wt); type: biochemical; settings: 5 nM
T1 construct: made in house; host or cells: E. coli BL21 (DE3)
Summary of the method: (§1)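 Compounds tested in duplicate (10 μM to 0.01 μM) for disruption of His-hSOS1 binding to GST-tagged wild-type or G12D K-Ras in HEPES pH 7.4 buffer. TR-FRET read (Eu donor, XL665 acceptor) after about 10 min or longer; IC50 derived from the 665/620 nm emission ratio.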

KRASG12D = target: T2, KRASG12D (Homo sapiens, UniProt P01116, G12D); experiment: Bio-Biochem-PPI-HTRF Ras-SOS1 interaction assay (KRAS G12D); type: biochemical; settings: 5 nM
T2 construct: made in house; host or cells: E. coli BL21 (DE3)
T2 sequence (P01116 1-188 isoform P01116-2 G12D): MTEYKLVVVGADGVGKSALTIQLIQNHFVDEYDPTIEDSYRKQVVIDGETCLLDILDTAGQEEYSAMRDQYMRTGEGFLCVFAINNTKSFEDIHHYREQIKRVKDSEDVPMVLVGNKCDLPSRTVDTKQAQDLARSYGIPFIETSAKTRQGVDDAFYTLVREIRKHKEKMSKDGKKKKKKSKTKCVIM
Summary of the method: as §1

T1 sequence (P01116 1-188 isoform P01116-2): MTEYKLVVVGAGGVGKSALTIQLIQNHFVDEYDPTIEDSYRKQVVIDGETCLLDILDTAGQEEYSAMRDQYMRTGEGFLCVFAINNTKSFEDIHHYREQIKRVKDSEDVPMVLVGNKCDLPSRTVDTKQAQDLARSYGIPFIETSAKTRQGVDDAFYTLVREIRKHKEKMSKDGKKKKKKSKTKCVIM

Row | Structure (SMILES) | IC50 (KRASwt) | IC50 (KRASG12D)
1 | N#Cc1c(N)sc2c(F)ccc(-c3c(Cl)cc4c(N5CCCCC6(CN(C(=O)C7CC7C(F)F)C6)C5)nc(OC[C@@]56CCCN5C[C@H](F)C6)nc4c3F)c12 (stereo partly drawn) [compound 287, 2-amino-4-(6-chloro-4-(2-(2-(difluoromethyl)cyclopropane-1-carbonyl)-2,6-diazaspiro[3.6]decan-6-yl)-8-fluoro-2-(((2R,7aS)-2-fluorotetrahydro-1H-pyrrolizin-7a(5H)-yl)methoxy)quinazolin-7-yl)-7-fluorobenzo[b]thiophene-3-carbonitrile] | < 5 µM | < 5 µM
2 | NC(=O)N1CC2(CCN(c3nc(OC[C@@]45CCCN4C[C@H](F)C5)nc4c(F)c(-c5ccc(F)c6sc(N)nc56)c(Cl)cc34)CC2)C1 [compound 157, 7-(7-(2-amino-7-fluorobenzo [d]thiazol-4-yl)-6-chloro-8-fluoro-2-(((2R,7aS)-2-fluorotetrahydro-1H-pyrrolizin-7a(5H)-yl)methoxy)quinazolin-4-yl)-2,7-diazaspiro[3.5]nonane-2-carboxamide] | < 5 µM | < 5 µM
3 | N#Cc1c(N)sc2c(F)ccc(-c3c(Cl)cc4c(N5CCCCC6(CN(C(=O)C78CC(C#N)(C7)C8)C6)C5)nc(OC[C@@]56CCCN5C[C@H](F)C6)nc4c3F)c12 [compound 279, 2-amino-4-(6-chloro-4-(2-(3-cyanobicyclo[1.1.1]pentane-1-carbonyl)-2,6-diazaspiro[3.6]decan-6-yl)-8-fluoro-2-(((2R,7aS)-2-fluorotetrahydro-1H-pyrrolizin-7a(5H)-yl)methoxy)quinazolin-7-yl)-7-fluorobenzo[b]thiophene-3-carbonitrile] | < 5 µM | < 5 µM
4 | N#Cc1c(N)sc2c(F)ccc(-c3c(Cl)cc4c(N5CCOC6(CN(C(=O)C7(C(F)F)COC7)C6)C5)nc(OC[C@@]56CCCN5C[C@H](F)C6)nc4c3F)c12 [compound 252, 2-amino-4-(6-chloro-4-(2-(3-(difluoromethyl)oxetane-3-carbonyl)-5-oxa-2,8-diazaspiro[3.5]nonan-8-yl)-8-fluoro-2-(((2R,7aS)-2-fluorotetrahydro-1H-pyrrolizin-7a(5H)-yl)methoxy)quinazolin-7-yl)-7-fluorobenzo[b]thiophene-3-carbonitrile] | < 5 µM | < 5 µM
5 | N#Cc1c(N)sc2c(F)ccc(-c3c(Cl)cc4c(N5CCOC6(CN(C(=O)[C@@H]7CC7(F)F)C6)C5)nc(OC[C@@]56CCCN5C[C@H](F)C6)nc4c3F)c12 [compound 217, 2-amino-4-(6-chloro-4-(2-((S)-2,2-difluorocyclopropane-1-carbonyl)-5-oxa-2,8-diazaspiro[3.5]nonan-8-yl)-8-fluoro-2-(((2R,7aS)-2-fluorotetrahydro-1H-pyrrolizin-7a(5H)-yl)methoxy)quinazolin-7-yl)-7-fluorobenzo[b]thiophene-3-carbonitrile] | < 5 µM | < 5 µM
6 | CC1(C)CN(c2nc(OC[C@@]34CCCN3C[C@H](F)C4)nc3c(F)c(-c4ccc(F)c5sc(N)nc45)c(Cl)cc23)CC2(CN(C#N)C2)O1 [compound 180, 8-(7-(2-amino-7-fluorobenzo[d]thiazol-4-yl)-6-chloro-8-fluoro-2-(((2R,7aS)-2-fluorotetrahydro-1H-pyrrolizin-7a(5H)-yl)methoxy)quinazolin-4-yl)-6,6-dimethyl-5-oxa-2,8-diazaspiro[3.5] nonane-2-carbonitrile] | < 5 µM | ≥ 5 µM
7 | N#Cc1c(N)sc2c(F)ccc(-c3c(Cl)cc4c(N5CCCC6(CN(C(=O)N7CC(C#N)C7)C6)C5)nc(OC[C@@]56CCCN5C[C@H](F)C6)nc4c3F)c12 [compound 308, 1-(6-(7-(2-amino-3-cyano-7-fluorobenzo[b]thiophen-4-yl)-6-chloro-8-fluoro-2-(((2R,7aS)-2-fluorotetrahydro-1H-pyrrolizin-7a(5H)-yl)methoxy)quinazolin-4-yl)-2,6-diazaspiro[3.5]nonane-2-carbonyl)azetidine-3-carbonitrile] | < 5 µM | < 5 µM
8 | CC(O)(C(=O)N1CC2(CCCCN(c3nc(OC[C@@]45CCCN4C[C@H](F)C5)nc4c(F)c(-c5ccc(F)c6sc(N)c(C#N)c56)c(Cl)cc34)C2)C1)C1CC1 (stereo partly drawn) [compound 329, 2-amino-4-(6-chloro-4-(2-(2-cyclopropyl-2-hydroxypropanoyl)-2,6-diazaspiro[3.6]decan-6-yl)-8-fluoro-2-(((2R,7aS)-2-fluorotetrahydro-1H-pyrrolizin-7a(5H)-yl)methoxy)quinazolin-7-yl)-7-fluorobenzo[b]thiophene-3-carbonitrile] | < 5 µM | < 5 µM
9 | N#Cc1c(N)sc2c(F)ccc(-c3c(Cl)cc4c(N5CCCCC6(CN(C(=O)CC78CC(F)(C7)C8)C6)C5)nc(OC[C@@]56CCCN5C[C@H](F)C6)nc4c3F)c12 [compound 282, 2-amino-4-(6-chloro-8-fluoro-4-(2-(2-(3-fluorobicyclo[1.1.1]pentan-1-yl)acetyl)-2,6-diazaspiro[3.6]decan-6-yl)-2-(((2R,7aS)-2-fluorotetrahydro-1H-pyrrolizin-7a(5H)-yl)methoxy)quinazolin-7-yl)-7-fluorobenzo[b]thiophene-3-carbonitrile] | < 5 µM | < 5 µM
10 | C#Cc1c(F)ccc2cc(O)cc(-c3ncc4c(N5CCCC6(CN(C(=O)[C@@H]7C[C@H]7C#N)C6)C5)nc(OC[C@@]56CCCN5C[C@H](F)C6)nc4c3F)c12 [compound 164, (1R,2R)-2-(6-(7-(8-ethynyl-7-fluoro-3-hydroxynaphthalen-1-yl)-8-fluoro-2-(((2R,7aS)-2-fluorotetrahydro-1H-pyrrolizin-7a(5H)-yl)methoxy)pyrido [4,3-d]pyrimidin-4-yl)-2,6-diazaspiro[3.5]nonane-2-carbonyl)cyclopropane-1-carbonitrile] | < 5 µM | < 5 µM
11 | Nc1nc2c(-c3c(Cl)cc4c(N5CCOC6(CNC6)C5)nc(OC[C@@]56CCCN5C[C@H](F)C6)nc4c3F)ccc(F)c2s1 [compound 107, 4-(6-chloro-8-fluoro-2-(((2R,7aS)-2-fluorotetrahydro-1H-pyrrolizin-7a(5H)-yl)methoxy)-4-(5-oxa-2,8-diazaspiro[3.5]nonan-8-yl)quinazolin-7-yl)-7-fluorobenzo[d]thiazol-2-amine] | < 5 µM | < 5 µM
12 | C#Cc1c(F)ccc2cc(O)cc(-c3ncc4c(N5CCCCC6(CN(C(=O)C(F)F)C6)C5)nc(OC[C@@]56CCCN5C[C@H](F)C6)nc4c3F)c12 [compound 344, 1-(6-(7-(8-ethynyl-7-fluoro-3-hydroxynaphthalen-1-yl)-8-fluoro-2-(((2R,7aS)-2-fluorotetrahydro-1H-pyrrolizin-7a(5H)-yl)methoxy)pyrido [4,3-d]pyrimidin-4-yl)-2,6-diazaspiro[3.6]decan-2-yl)-2,2-difluoroethan-1-one] | < 5 µM | < 5 µM
13 | N#Cc1c(N)sc2c(F)ccc(-c3c(Cl)cc4c(N5CCCCC6(CN(C(=O)C7CC78CCOC8)C6)C5)nc(OC[C@@]56CCCN5C[C@H](F)C6)nc4c3F)c12 (stereo partly drawn) [compound 267, 4-(4-(2-(5-oxaspiro[2.4]heptane-1-carbonyl)-2,6-diazaspiro[3.6]decan-6-yl)-6-chloro-8-fluoro-2-(((2R,7aS)-2-fluorotetrahydro-1H-pyrrolizin-7a(5H)-yl)methoxy)quinazolin-7-yl)-2-amino-7-fluorobenzo[b] thiophene-3-carbonitrile] | < 5 µM | < 5 µM
